Source: patent US20240246979A1, “cGAS INHIBITORS” (Eli Lilly and Company, priority 2022, published 2024)

Assays:
cGAS [1] = target: T1, cGAS (Homo sapiens, UniProt Q8N884); assay: Cellular assay to measure cGAS activity (IFNb AlphaLISA in THP1 cells stimulated by RDG-Adenovirus-GFP); assay type: cell-based; design: host or cells: THP1 cells differentiated with PMA and stimulated with RDG-Adenovirus-GFP; conditions: PMA-differentiated THP1 cells, RDG-Adenovirus-GFP at 1000 MOI; inhibition of IFNb production as marker for cGAS activity
Outline: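 PMA-differentiated THP1 cells were infected with RDG-Adenovirus-GFP at 1000 MOI for 4 h, then exposed overnight to test compounds. IFNb in the supernatant was quantified by AlphaLISA as a cGAS activity marker, and IC50 was fitted with a 4-parameter logistic equation.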

cGAS [2] = target: T1, cGAS; assay: In vitro inhibition assay of cGAS activity (cGAMP production, RapidFire mass spectrometry); assay type: biochemical; design: Insert cDNA encoding full-length of human cGAS; His6; made in house; host or cells: E. coli BL21(DE3); conditions: 10 nM recombinant human cGAS, 60 nM 75-bp dsDNA, 50 μM ATP, 50 μM GTP, 3 hrs
Outline: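 His6-tagged full-length human cGAS (10 nM, E. coli-expressed) was incubated for 3 hrs at ambient temperature with 60 nM 75-bp dsDNA, 50 μM ATP and 50 μM GTP in Tris pH 7.5/MgCl2 buffer with compound dilutions. cGAMP was quantified by RapidFire mass spectrometry against an internal standard, and IC50 was obtained by 4-parameter logistic fit.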

T1 sequence (Q8N884 whole entry): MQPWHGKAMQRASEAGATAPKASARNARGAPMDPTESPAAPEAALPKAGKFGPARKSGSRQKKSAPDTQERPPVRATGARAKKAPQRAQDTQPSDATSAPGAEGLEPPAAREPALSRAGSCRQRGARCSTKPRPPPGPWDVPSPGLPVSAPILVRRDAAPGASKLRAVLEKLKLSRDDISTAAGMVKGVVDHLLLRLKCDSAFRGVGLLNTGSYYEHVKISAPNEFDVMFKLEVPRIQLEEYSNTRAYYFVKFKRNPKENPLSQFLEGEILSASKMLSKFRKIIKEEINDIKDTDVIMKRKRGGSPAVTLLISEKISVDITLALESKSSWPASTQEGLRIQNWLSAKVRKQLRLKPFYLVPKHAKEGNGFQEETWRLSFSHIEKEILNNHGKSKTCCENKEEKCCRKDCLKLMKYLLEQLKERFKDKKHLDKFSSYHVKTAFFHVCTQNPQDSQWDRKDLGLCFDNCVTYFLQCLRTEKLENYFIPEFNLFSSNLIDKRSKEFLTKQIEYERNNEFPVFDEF

IC50 (cGAS [1]) [nM]	IC50 (cGAS [2]) [nM]	Structure (SMILES)
2440	35.4	COCCNc1cc(Cl)c(Cl)c2c1c1c(n2C(F)F)CCNC(=O)C1C (stereo not drawn) [Example 141, 7,8-Dichloro-6-(difluoromethyl)-10-((2-methoxyethyl)amino)-1-methyl-3,4,5,6-tetrahydroazepino[4,5-b]indol-2(1H)-one]
649	22.5	CC1C(=O)NCCc2c1c1c(NC(=O)CO)cc(Cl)c(Cl)c1n2C(F)F (stereo not drawn) [Example 144, N-(7,8-Dichloro-6-(difluoromethyl)-1-methyl-2-oxo-1,2,3,4,5,6-hexahydroazepino[4,5-b]indol-10-yl)-2-hydroxyacetamide]
1280	48.7	CCC1CNC(=O)Cc2c1[nH]c1c(Cl)c(Cl)cc(-c3cnn(C)n3)c21 (stereo not drawn) [Example 162, 7,8-Dichloro-5-ethyl-10-(2-methyl-2H-1,2,3-triazol-4-yl)-3,4,5,6-tetrahydroazepino[4,5-b]indol-2(1H)-one]
1620	23.1	CCC1CNC(=O)Cc2c1[nH]c1c(Cl)c(Cl)cc(NCCO)c21 (stereo not drawn) [Example 163, 7,8-Dichloro-5-ethyl-10-((2-hydroxyethyl)amino)-3,4,5,6-tetrahydroazepino[4,5-b]indol-2(1H)-one]
1380	18.9	CCCC1CNC(=O)Cc2c1[nH]c1c(Cl)c(Cl)cc(-c3cnn(C)n3)c21 (stereo not drawn) [Example 164, 7,8-Dichloro-10-(2-methyl-2H-1,2,3-triazol-4-yl)-5-propyl-3,4,5,6-tetrahydroazepino[4,5-b]indol-2(1H)-one]
1730	44.2	CC1Cc2[nH]c3c(Cl)c(Cl)cc(NCCO)c3c2CC(=O)N1 (stereo not drawn) [Example 165, 7,8-Dichloro-10-((2-hydroxyethyl)amino)-4-methyl-3,4,5,6-tetrahydroazepino[4,5-b]indol-2(1H)-one]
7110	38.9	COC(=O)CC1CNC(=O)Cc2c1[nH]c1c(Cl)c(Cl)cc(CC#N)c21 (stereo not drawn) [Example 176, Methyl 2-(7,8-dichloro-10-(cyanomethyl)-2-oxo-1,2,3,4,5,6-hexahydroazepino[4,5-b]indol-5-yl)acetate]
793	23.7	CC1C(=O)NCCc2[nH]c3c(Cl)c(Cl)cc(OC[C@H]4CCO4)c3c21 (stereo partly drawn) [Example 180, 7,8-Dichloro-1-methyl-10-(((R)-oxetan-2-yl)methoxy)-3,4,5,6-tetrahydroazepino[4,5-b]indol-2(1H)-one]
1850	40.9	CC1C(=O)NCCc2[nH]c3c(Cl)c(Cl)cc(OC4COC4)c3c21 (stereo not drawn) [Example 183, 7,8-Dichloro-1-methyl-10-(oxetan-3-yloxy)-3,4,5,6-tetrahydroazepino[4,5-b]indol-2(1H)-one]
